Literature values in US6365601B1, “Process for extraction of piperine from piper species” (Council of Scientific and Industrial Research, priority 1999, dated 2002).

Settings: Reen and Rashmet, J. Ethnopharmacol., 1997

Compound: O=C(/C=C/C=C/c1ccc2c(c1)OCO2)N1CCCCC1 [Piperine]
- chemoprotective effect against procarcinogens: potent chemoprotective effect
